Columns and labels:
α-glucosidase = α-glucosidase (Saccharomyces cerevisiae, UniProt P53341); format: biochemical
Method: (§1) Biological profile of all the candidates were obtained through experimental-based analysis, as described in the inhibitory assay (5.3 and 5.4). […]
5.4 α-glucosidase inhibitory assay protocol
10 µl of the α-glucosidase enzyme, 20 µl of test samples (10-50 µg/ml) and 50 µl, of 0.1M […]
nitrophenyl—D-g lucopy ranoside solution was fu rther added as a substrate and again incubated for 20 min at 37 °C. Sodium carbonate (50 µl of 0.1M) was added to terminate the reaction. P- […]
conditions by omitting test samples. All the experiments were carried out in triplicates. The percentage inhibition was calculated by the formula.
% Inhibition = [(Ac – As) /Ac] × 100 Ac-absorbance for control, As-absorbance for standard. […]
(§2) PDB format. The process was further carried out in auto dock in which polar hydrogen and Kollman and Gasteiger charges were add ed to protein. Selected ligand was also prepared done by using torsion tree to detect root. Moreover, configuration file was generated along with X, Y and Z axis save both ligand and protein in PDBQT format in the same docking folder. At the end

α-amylase = target: T1, α-amylase (Sus scrofa, UniProt P00690); experiment: In vitro α-amylase inhibitory assay; format: biochemical
T1 sequence (P00690 16-511): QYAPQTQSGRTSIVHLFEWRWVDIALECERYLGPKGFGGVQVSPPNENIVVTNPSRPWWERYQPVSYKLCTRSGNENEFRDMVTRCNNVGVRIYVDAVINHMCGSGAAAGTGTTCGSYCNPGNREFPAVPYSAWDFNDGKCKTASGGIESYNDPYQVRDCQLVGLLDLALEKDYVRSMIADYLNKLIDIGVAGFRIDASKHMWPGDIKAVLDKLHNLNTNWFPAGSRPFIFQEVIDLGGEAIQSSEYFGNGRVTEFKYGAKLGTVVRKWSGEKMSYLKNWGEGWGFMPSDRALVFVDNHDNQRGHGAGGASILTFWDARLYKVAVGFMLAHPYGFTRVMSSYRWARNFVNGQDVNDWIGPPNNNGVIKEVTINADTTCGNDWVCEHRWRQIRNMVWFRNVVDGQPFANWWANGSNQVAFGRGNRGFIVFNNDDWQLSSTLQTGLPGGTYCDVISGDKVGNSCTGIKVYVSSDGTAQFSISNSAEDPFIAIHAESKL
Method: as §1
absorbance was recorded using an ELISA microplate reader at 540 nm. […]
the standard. All the reactions were carried out in triplicates. The reaction mixture, devoid of the test sample, served as control. […]
as §2

α-glucosidase, sequence (P53341 whole entry): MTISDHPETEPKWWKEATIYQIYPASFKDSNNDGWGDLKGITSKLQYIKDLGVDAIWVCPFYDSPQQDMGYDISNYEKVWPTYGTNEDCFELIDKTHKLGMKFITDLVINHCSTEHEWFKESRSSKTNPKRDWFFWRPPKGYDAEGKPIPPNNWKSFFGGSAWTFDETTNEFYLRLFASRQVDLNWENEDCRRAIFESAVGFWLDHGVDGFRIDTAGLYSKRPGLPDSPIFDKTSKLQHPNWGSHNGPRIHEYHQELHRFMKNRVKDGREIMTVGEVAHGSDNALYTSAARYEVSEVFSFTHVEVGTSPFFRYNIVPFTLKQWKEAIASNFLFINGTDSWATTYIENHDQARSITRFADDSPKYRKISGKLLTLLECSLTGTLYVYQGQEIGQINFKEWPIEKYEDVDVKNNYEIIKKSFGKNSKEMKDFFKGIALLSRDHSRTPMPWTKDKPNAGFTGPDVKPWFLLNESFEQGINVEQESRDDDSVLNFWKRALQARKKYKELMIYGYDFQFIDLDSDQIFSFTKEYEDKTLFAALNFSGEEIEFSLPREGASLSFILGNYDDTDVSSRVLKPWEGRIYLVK

| Molecule | melting point [°C] | IC50 (α-glucosidase) [µM] | IC50 (α-amylase) [µM] |
| --- | --- | --- | --- |
| O=C1N/C(=N/c2nccs2)S/C1=C\c1ccc2ncsc2c1-c1cccc([N+](=O)[O-])c1Cl [Compound 9, (2Z,5Z)-5-((7-(2-chloro-3-nitrophenyl)benzo[d]thiazol-6-yl)methylene)-2-(thiazol-2-ylimino)thiazolidin-4-one] | 241 to 242 | – | – |
| CN(C)c1cc(/C=C2\S/C(=N\c3nccs3)NC2=O)cc2scnc12 [Compound 10, (2Z,5Z)-5-((4-(dimethylamino)benzo[d]thiazol-6-yl)methylene)-2-(thiazol-2-ylimino)thiazolidin-4-one] | 227 to 228 | – | – |
| N#Cc1cccc(-c2c(/C=C3\S/C(=N\c4nccs4)NC3=O)ccc3ncsc23)c1 [Compound 15, 3-(6-((Z)-((Z)-4-oxo-2-(thiazol-2-ylimino)thiazolidin-5-ylidene)methyl)benzo[d]thiazol-7-yl)benzonitrile] | 243 to 244 | – | – |
| (2Z,5Z)-5-((5-nitrobenzo [d]thiazol-6-yl) methylene)-2-(thiazol-2-ylimino)thiazolidin-4-one [Compound 1] | – | 8.8 ± 0.2 | 7.7 ± 0.2 |
| (2Z,5Z)-5-((7-hydroxy-4-(trifluoromethyl)benzo[d]thiazol-6-yl)methylene)-2-(thiazol-2-ylimino)thiazolidin-4-one [Compound 6] | – | 3.2 ± 0.7 | 2.1 ± 0.7 |
